What was measured:
[1] = target: human serum albumin (HSA) (Homo sapiens, UniProt P02768); conditions: human blood, equilibrium moved towards carboxylate by affinity for HSA; cited from earlier work
humanized NSG mice = assay: toxicity of CPT given by gavage to humanized and non-humanized NSG mice (weight, blood cell counts); format: in vivo, mouse
Description: Once maximum engraftment is reached as measured in Example 1 or 2, initial validation experiments are performed. A reasonable number of doubly humanized mice are obtained within approximately 5 to 6 months from the start of the humanizing process, i.e., 10-12 NSG mice with a >80% human BM and a >60% HSA in their blood. […] Camptothecin (CPT) is administered by gavage to humanized and non-humanized mice. At normal pH, CPT exists in equilibrium between two states: lactone and carboxylate. In the mouse, equilibrium is around 50% for each isoform. However, in human blood, due to an affinity for human serum albumin (HSA), the equilibrium moves towards the carboxylate form, leaving only 3%-5% total CPT in the active lactone form, see Giovanella et al., Annals New York Academy of Sciences 922: 27-35, 2000. The double humanized mouse can act akin to a human in this respect. Higher and higher doses of CPT are administered starting with a dose of 0.5 mg/kg orally by gavage given daily for 5 days followed by 2 days of rest for 3 weeks. Animals are weighed twice a week and their weight recorded. Blood is taken twice a week and blood cells counted. If no toxicity is found, the dose is raised by 50% and the procedure repeated until toxicity is obtained.

[2] = in the mouse, normal pH; cited from earlier work
human tumors [3] = assay: xenograft test repeated in mice with higher percentage of human bone marrow and hepatocytes; format: in vivo, mouse; conditions: less humanized vs more humanized group
Description: The procedures in any one or combination of Examples 1-4 are performed with mice having a higher percentage of human bone marrow and hepatocytes. Rather than having a non-human control, the control can be instead, or in addition, mice having the percentage of human bone marrow (and/or human cord blood) used in the experimental group in the first performance of the procedures. Double humanized mice are further supplemented with human or humanized intestinal enzymes to form a triply humanized mouse (bone marrow, liver, and intestinal enzymes), which is then be used as a predictor of human response to anticancer agents. A mouse having humanized intestinal enzymes can be constructed, for example, as described in van Herwaarden et al., J. Clin. Invest., 117 (11):3583-3592, 2007. […] A human dose for CPT can be redetermined and suitability of the drug for treatment of humans can be redetermined.

human tumors [4] = assay: human tumors xenotransplanted subcutaneously in humanized and non-humanized NSG mice, treated at MTD of CPT; format: in vivo, mouse; conditions: non-humanized vs humanized group, each at its own MTD
Description: Once a maximum tolerated dose (MTD) for humanized NSG mice and MTD for non-humanized ones is obtained using the procedure described in Example 3, final validation experiments are performed. Six human tumors are xenotransplanted subcutaneously on the dorsal flank in humanized and non-humanized NSG mice. Once the tumors become palpable, the animals are treated with the MTD dose of CPT of their group, i.e., the humanized mice with the humanized MTD and the non-humanized mice with their MTD. The tumors are measured with calipers twice a week and the results recorded. […] A human dose for CPT can be determined and suitability of the drug for treatment of humans can be determined. The experiments can be performed substituting one or more drugs in place of CPT. The experiments can be performed using one or more drugs in addition to CPT. The experiments can be performed by using introduction of human leukemia cancer cells or other non-solid tumor human cancer cells into the rodent instead of xenotransplantation of solid tumors. Such cancers can be evaluated based on alternative metrics such as cell count.

Chain of human serum albumin (HSA) (P02768 25-609): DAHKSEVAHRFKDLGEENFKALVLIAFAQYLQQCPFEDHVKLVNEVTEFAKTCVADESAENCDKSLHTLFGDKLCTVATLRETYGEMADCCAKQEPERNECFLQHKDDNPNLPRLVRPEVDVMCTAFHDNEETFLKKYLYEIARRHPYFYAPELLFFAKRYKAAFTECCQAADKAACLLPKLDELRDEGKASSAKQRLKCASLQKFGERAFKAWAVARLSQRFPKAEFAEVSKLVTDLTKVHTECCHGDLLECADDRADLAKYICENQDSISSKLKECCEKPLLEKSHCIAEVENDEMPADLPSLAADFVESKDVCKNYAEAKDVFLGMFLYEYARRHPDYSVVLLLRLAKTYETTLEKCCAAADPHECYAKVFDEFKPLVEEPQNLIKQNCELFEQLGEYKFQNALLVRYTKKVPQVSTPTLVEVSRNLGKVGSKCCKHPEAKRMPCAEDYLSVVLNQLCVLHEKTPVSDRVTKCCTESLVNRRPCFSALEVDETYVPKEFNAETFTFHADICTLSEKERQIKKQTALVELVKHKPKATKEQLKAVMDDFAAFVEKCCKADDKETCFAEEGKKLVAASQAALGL

## CC[C@@]1(O)C(=O)OCc2c1cc1n(c2=O)Cc2cc3ccccc3nc2-1 [CPT, Camptothecin]
[1]
  total CPT in the active lactone form: 3%-5%
Humanized NSG mice; human bone marrow cells vs mouse cells
  sensitivity of human bone marrow cells present in the mouse: more sensitive to camptothecin than mouse cells
Humanized NSG mice; humanized NSG mice, relation to percentage of human bone marrow
  hematological toxicity of CPT: directly proportional to the percentage of human bone marrow
Humanized NSG mice; oral gavage from 0.5 mg/kg daily x5, 2 days rest, 3 weeks, dose raised by 50%, humanized vs non-humanized mice
  toxicity of CPT for humanized mice: Higher toxicity
[2]
  equilibrium share of each isoform (lactone and carboxylate): around 50%
Human tumors [3]
  anticancer activity (relative size of the tumors): higher anticancer activity of CPT in the less humanized group
Human tumors [4]
  anticancer activity (relative size of the tumors): much higher anticancer activity of CPT in the non-humanized group
